One series can be described thus: in vivo. Conditions: male, SD, rat, po, 10 mg/kg.
For series [1], the target named is T1, Human recombinant enteropeptidase (Homo sapiens, UniProt P98073).
T1 construct: purchased BIO Vision Inc. 7529-50
Briefly: Human enteropeptidase inhibition test. Type of series: biochemical. Conditions: read-out: Inhibition rate (enteropeptidase); for inhibition at 0.001 µM: compound concentration 1 nM. The procedure, abridged:
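Recombinant human enteropeptidase in 50 mM tricine pH 8.0, 0.01% Tween 20, 10 mM CaCl2 cleaving 1.5 μM 5FAM/CPQ2-quenched peptide substrate (stock solution concentration). Fluorescence (ex 485/em 535 nm) read 20 min after enzyme addition; % inhibition versus no-compound and no-enzyme controls.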

Series [2] in a line: Rat pharmacokinetic (PK) test (plasma concentration after oral administration). Conditions: male, SD.
Protocol: (§1) Each test compound was suspended in a 0.5 W/V % methylcellulose 400 solution to prepare a suspension, and the resulting suspension was orally administered to a male SD rat of 7 to 8-week old (weight: 180 to 250 g). After 0.25, 0.5, 1, 2, 4, 8, and 24 hour(s) of the administration of each test compound, blood (EDTA-added blood) was collected from jugular vein under isoflurane inhalation anesthesia. […] To the resulting blood plasma was added acetonitrile, a mixed solvent of acetonitrile and water (1:1 (V/V)), or a mixed solvent of acetonitrile and 0.1 M hydrochloric acid (1:1 (V/V)), then the resulting mixture was mixed at 750 rpm for 3 minutes in a shaker, and subjected to centrifugal separation at 3700 rpm for 2 minutes in a centrifuge to remove proteins. The resulting sample was subjected to LC (liquid chromatography)/MS (mass spectrometry) measurement under the following measurement conditions.
(§2) Each compound concentration in blood plasma at each time of blood collection was calculated according to the internal standard method, and, area under the plasma concentration vs. time curve (AUCall (Area Under Curve)) was calculated according to the trapezoidal method.
(§3) The LC and MS systems used in the present test are as follows.
(§4) LC: LC20 or LC30 HPLC system manufactured by Shimadzu Corporation
(§5) Column: Phenomenex Kinetex C18 (50×2.1 mm, 2.6 μm)
Column temperature: 40° C.
(§6) Mobile phase A: aqueous solution with 0.1% formic acid, Mobile phase B: 50% acetonitrile/methanol solution with 0.1% formic acid
A further series concerns DIO mouse. The experiment in a line: Anti-obesity effect test using DIO mouse. The series is classed as in vivo. Conditions: 336 h, DIO mice, vs vehicle group, read-out: Weight loss rate; for inhibition in vivo at 50 mg/kg: oral 50 mg/kg once daily for 2 weeks. The procedure, abridged:
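Male C57BL-DIO mice on D-12492 diet, 26 to 28-week old, 5 or 6 per group; compound dosed orally once daily for 2 weeks as 0.5 W/V % methylcellulose suspension, vehicle group on suspension alone. Weight loss rate (%) = (1 − mean final-day weight of treated group / mean final-day weight of vehicle group) × 100.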

The target in series [3] is T2, Human recombinant trypsin (Homo sapiens, UniProt P07477).
T2 construct: purchased Wako Pure Chemical Industries, Ltd. 206-17171
Briefly: Human trypsin inhibition test. Type of series: biochemical. As to conditions: 20 minutes after reaction start, read-out: Inhibition rate (trypsin); for inhibition at 0.001 µM: compound concentration 1 nM; for inhibition at 0.01 µM: compound concentration 10 nM; for inhibition at 0.1 µM: compound concentration 100 nM. The procedure, abridged: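 Trypsin diluted to 10 ng/mL in 0.1 M Tris-HCl pH8.0, 0.15 M NaCl, 10 mM CaCl2, 0.05% Brij35; substrate solution 40 μM Boc-Phe-Ser-Arg-MCA, compounds in 1% DMSO buffer. Fluorescence (ex 355/em 460 nm) read 20 min after enzyme addition; % inhibition versus no-compound and no-enzyme controls.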

The test system of a further series is HFD-fed mouse. The experiment in a line: Fecal protein concentration-increasing test by single administration using HFD-fed mouse. As to conditions: 24 h, HFD-fed mice, vs vehicle group, read-out: Ratio for an increase of protein concentration in feces; for response vs control in vivo at 50 mg/kg: single oral dose 50 mg/kg. The series is classed as in vivo. An excerpt:
(Test Example 3): Fecal Protein Concentration-Increasing Test by Single Administration Using HFD-Fed Mouse
High fat diet-fed (HFD-fed) mice (D-12492 diet, male, ICR, 6 week old) were orally administered with a 0.5 W/V % methylcellulose suspension comprising each test compound (Compound administration group, 4 or 5 mice/group) or a 0.5 W/V % methylcellulose suspension (Compound non-administration group (Vehicle group), 5, 6, or 7 mice/group), and whole feces of the day were collected. Dried feces were dissolved into a 0.5N aqueous sodium hydroxide solution, followed by centrifugation at 3500 rpm. Then each protein concentration in the resulting supernatant was determined (Lowry method), and the ratio for an increase of protein concentration in feces was calculated by the following equation using the protein concentration in feces contained in 1 g of feces (mg/g feces). Ratio for an increase of protein concentration in feces−(average protein concentration in feces of Compound administration group)[…](average protein concentration in feces of Compound non-administration group)

Where [4] appears, read: 20 minutes after reaction start.
The mark [5] stands for this setting: compound concentration 10 nM, 20 minutes after reaction start.
[6] abbreviates: compound concentration 100 nM, 20 minutes after reaction start.

SMILES strings stand for the structures. Counter-ions that a name gives are not always drawn. Like-named read-outs stand apart in the source and are kept apart here. Some results are limits rather than exact numbers.

The term AUC denotes concentration integrated over time. Higher therefore signals high exposure. By inhibition is commonly meant the percentage by which the read-out fell short of the control.

T1 sequence (P98073 whole entry): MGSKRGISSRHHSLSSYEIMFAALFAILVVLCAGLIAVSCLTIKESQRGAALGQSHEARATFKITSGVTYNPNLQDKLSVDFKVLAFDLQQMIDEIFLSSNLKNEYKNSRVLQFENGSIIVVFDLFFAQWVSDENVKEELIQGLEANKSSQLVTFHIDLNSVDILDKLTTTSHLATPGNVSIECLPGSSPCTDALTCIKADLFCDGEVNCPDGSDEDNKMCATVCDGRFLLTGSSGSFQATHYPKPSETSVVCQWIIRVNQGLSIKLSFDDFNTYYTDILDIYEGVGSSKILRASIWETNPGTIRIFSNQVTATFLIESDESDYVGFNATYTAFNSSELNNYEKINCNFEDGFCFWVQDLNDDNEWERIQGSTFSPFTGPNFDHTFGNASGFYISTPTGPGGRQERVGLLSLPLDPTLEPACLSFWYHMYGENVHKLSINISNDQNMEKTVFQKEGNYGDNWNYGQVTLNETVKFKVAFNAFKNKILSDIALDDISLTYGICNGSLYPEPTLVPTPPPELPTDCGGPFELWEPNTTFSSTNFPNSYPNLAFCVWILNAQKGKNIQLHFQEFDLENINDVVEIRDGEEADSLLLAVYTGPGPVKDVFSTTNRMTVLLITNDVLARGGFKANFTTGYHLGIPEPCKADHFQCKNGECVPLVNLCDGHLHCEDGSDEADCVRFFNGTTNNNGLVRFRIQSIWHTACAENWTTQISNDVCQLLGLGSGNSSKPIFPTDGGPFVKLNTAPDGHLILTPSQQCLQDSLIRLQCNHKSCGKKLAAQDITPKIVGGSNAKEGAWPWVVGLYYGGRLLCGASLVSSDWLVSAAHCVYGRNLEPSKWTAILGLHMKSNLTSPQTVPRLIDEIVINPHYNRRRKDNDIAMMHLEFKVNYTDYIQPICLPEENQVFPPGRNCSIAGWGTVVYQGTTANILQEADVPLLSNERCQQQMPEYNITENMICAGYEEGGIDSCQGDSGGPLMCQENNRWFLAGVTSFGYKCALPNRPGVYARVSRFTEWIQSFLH
Protocol for in vivo: as §1, §2, §3, §4, §5
Column temperature: 40° C.
as §6

With `Cl.N=C(N)Nc1ccc2c(c1)CCCOc1c(cccc1C(=O)N(CCOCCOCCN(C(=O)c1cccc3c1OCCCc1cc(NC(=N)N)ccc1C(=O)O3)[C@H](CC(=O)O)C(=O)O)[C@H](CC(=O)O)C(=O)O)OC2=O` [21-(c), (2R,13R)-3,12-bis(10-guanidino-13-oxo-6,7,8,13-tetrahydrodibenzo[b,f][1,4]dioxecin-4-carbonyl)-6,9-dioxa-3,12-diazatetradecane-1,2,13,14-tetracarboxylic acid hydrochloride], the area under the curve (AUC) in the series “in vivo” is at most 100 ng·h/mL.
Consider `N=C(N)Nc1ccc(C(=O)Oc2ccc(CNS(=O)(=O)N(CCCN([C@@H](CC(=O)O)C(=O)O)S(=O)(=O)NCc3ccc(OC(=O)c4ccc(NC(=N)N)cc4)cc3)[C@@H](CC(=O)O)C(=O)O)cc2)cc1` [7-(b), (2S,2′)-2,2′-propane-1,3-diylbis((N-(4-((4-guanidinobenzoyl)oxy)benzyl)sulfamoyl)azanediyl)disuccinic acid], for which the inhibition at 0.001 µM in series [1] (setting [4]) and in series [3] was at least 50% in each case. Further, the inhibition at 0.01 µM in series [1] (setting [5]) and in series [3] was at least 50% throughout. For the same molecule, the inhibition at 0.1 µM in series [1] (setting [6]) and in series [3] was at least 50% in each case. The same molecule registered an AUC in series [2] (10 mg/kg) of at most 100 ng·h/mL. For the same molecule, the inhibition in vivo at 100 mg/kg in the series with DIO mouse (oral 100 mg/kg once daily for 2 weeks) is at least 4%. For the same molecule, the response vs control in vivo at 30 mg/kg in the series with HFD-fed mouse (single oral dose 30 mg/kg) is at least 130%.
`N=C(N)Nc1ccc(C(=O)Oc2ccc(CNS(=O)(=O)N(CCOCCN([C@@H](CC(=O)O)C(=O)O)S(=O)(=O)NCc3ccc(OC(=O)c4ccc(NC(=N)N)cc4)cc3)[C@@H](CC(=O)O)C(=O)O)cc2)cc1` [1-(b), (2S,2′S)-2,2′-((oxybis(ethane-2,1-diyl))bis((N-(4-((4-guanidinobenzoyl)oxy)benzyl)sulfamoyl)azanediyl))disuccinic acid]: the inhibition at 0.001 µM in series [1] (setting [4]) and in series [3] was at least 50% each time. Moreover, the inhibition at 0.01 µM in series [1] (setting [5]) and in series [3] was at least 50% throughout. The inhibition at 0.1 µM in series [1] (setting [6]) and in series [3] was at least 50% in each case. In addition, in series [2] (100 mg/kg), the area under the curve (AUC) is at most 100 ng·h/mL. The inhibition in vivo at 30 mg/kg in the series with DIO mouse (oral 30 mg/kg once daily for 2 weeks) was at least 4%. Moreover, the response vs control in vivo at 87 mg/kg in the series on HFD-fed mouse (single oral dose 87 mg/kg) is at least 130%.
On to `N=C(N)Nc1ccc2c(c1)CCCOc1c(cccc1C(=O)N(Cc1cccc(-c3cccc(CN(C(=O)c4cccc5c4OCCCc4cc(NC(=N)N)ccc4C(=O)O5)[C@@H](CC(=O)O)C(=O)O)c3)c1)[C@@H](CC(=O)O)C(=O)O)OC2=O` [28-(c)], for which, in series [1] (setting [4]), the inhibition at 0.001 µM is at least 50%. Also, the inhibition at 0.01 µM in series [1] (setting [5]) and in series [3] was at least 50% in each case. The inhibition at 0.1 µM in series [1] (setting [6]) and in series [3] was at least 50% in each case. The AUC in series [2] (10 mg/kg) was at most 100 ng·h/mL. Further, the inhibition in vivo at 50 mg/kg with DIO mouse is at least 4%. Moreover, in the series with HFD-fed mouse, the response vs control in vivo at 50 mg/kg is at least 130%.
`Cl.N=C(N)Nc1ccc2c(c1)CCCOc1c(cccc1C(=O)N(CCOCCOCCN(C(=O)c1cccc3c1OCCCc1cc(NC(=N)N)ccc1C(=O)O3)[C@@H](CC(=O)O)C(=O)O)[C@@H](CC(=O)O)C(=O)O)OC2=O` [20-(c), (2S,13S)-3,12-bis(10-guanidino-13-oxo-6,7,8,13-tetrahydrodibenzo[b,f][1,4]dioxecin-4-carbonyl)-6,9-dioxa-3,12-diazatetradecane-1,2,13,14-tetracarboxylic acid hydrochloride] had an exposure (AUC) in the series “in vivo” of at most 100 ng·h/mL.
With `N=C(N)Nc1ccc(C(=O)Oc2ccc(CNS(=O)(=O)N(CCOCCOCCOCCOCCN([C@@H](CC(=O)O)C(=O)O)S(=O)(=O)NCc3ccc(OC(=O)c4ccc(NC(=N)N)cc4)cc3)[C@@H](CC(=O)O)C(=O)O)cc2)cc1` [4-(b), (2S,19S)-3,18-bis(N-(4-((4-guanidinobenzoyl)oxy)benzyl)sulfamoyl)-6,9,12,15-tetraoxa-3,18-diazaicosane-1,2,19,20-tetracarboxylic acid trifluoroacetate], the inhibition at 0.01 µM in series [1] (setting [5]) and in series [3] was at least 50% in each case. The inhibition at 0.1 µM in series [1] (setting [6]) and in series [3] was at least 50% in each case. Further, the area under the curve (AUC) in series [2] (10 mg/kg) is at most 100 ng·h/mL. The inhibition in vivo at 86 mg/kg in the series on DIO mouse (oral 86 mg/kg once daily for 2 weeks) was at least 4%. Also, the response vs control in vivo at 100 mg/kg in the series with HFD-fed mouse (single oral dose 100 mg/kg) is at least 130%.
Turning to `Cl.N=C(N)Nc1ccc2c(c1)CCCOc1c(cccc1C(=O)N(Cc1cc(OCCOCCOc3cc(CN(C(=O)c4cccc5c4OCCCc4cc(NC(=N)N)ccc4C(=O)O5)[C@@H](CC(=O)O)C(=O)O)cc(C(=O)O)c3)cc(C(=O)O)c1)[C@@H](CC(=O)O)C(=O)O)OC2=O` [29-(c), (2S,2′S)-2,2′-(((((oxybis(ethane-2,1-diyl))bis(oxy))bis(3-carboxy-5,1-phenylene))bis(methylene))bis((10-guanidino-13-oxo-6,7,8,13-tetrahydrodibenzo[b,f][1,4]dioxecin-4-carbonyl)azanediyl))disuccinic acid hydrochloride], in series [1] (setting [4]), the inhibition at 0.001 µM is at least 50%. Besides, the inhibition at 0.01 µM in series [1] (setting [5]) is at least 50%. Besides, the inhibition at 0.1 µM in series [1] (setting [6]) and in series [3] was at least 50% each time. In series [2] (10 mg/kg), this molecule yielded an area under the curve (AUC) of at most 100 ng·h/mL. Further, the inhibition in vivo at 50 mg/kg in the series on DIO mouse was at least 4%. The response vs control in vivo at 50 mg/kg in the series on HFD-fed mouse is at least 130%.
Regarding `N=C(N)Nc1ccc(C(=O)Oc2ccc(COC(=O)N(Cc3cccc(C(=O)NCCOCCOCCOCCOCCNC(=O)c4cccc(CN(C(=O)OCc5ccc(OC(=O)c6ccc(NC(=N)N)cc6)cc5)[C@@H](CC(=O)O)C(=O)O)c4)c3)[C@@H](CC(=O)O)C(=O)O)cc2)cc1` [17-(b), (2S,2′S)-2,2′-(((5,8,11,14-tetraoxa-2,17-diazaoctadecane-1,18-dioyl)bis(3,1-phenylene))bis(methylene))bis((((4-((4-guanidinobenzoyloxy)benzyloxycarbonyl)azanediyl))disuccinic acid trifluoroacetate], in series [1], the inhibition at 0.01 µM is at least 50% and the inhibition at 0.1 µM was at least 50%. In addition, in series [2] (9 mg/kg), the exposure (AUC) was at most 100 ng·h/mL. Besides, the inhibition in vivo at 88 mg/kg in the series on DIO mouse (oral 88 mg/kg once daily for 2 weeks) is at least 4%. Moreover, in series [3], the inhibition at 0.001 µM was at least 50%, the inhibition at 0.01 µM is at least 50% and the inhibition at 0.1 µM is at least 50%. For the same molecule, the response vs control in vivo at 91 mg/kg in the series on HFD-fed mouse (single oral dose 91 mg/kg) is at least 130%.

The values are drawn from US11465965B2, “Double-headed protease inhibitor” (UBE INDUSTRIES, LTD., priority 2017, dated 2022).
